{"source": "paper PMC7179955", "about": "(Pharmaceutical research, 2016)", "key": {"gastric pH [1]": {"system": "gastric pH", "test": "Intra-gastric pH monitoring with the Heidelberg pH capsule", "assay_type": "in vivo, human"}, "[2]": {"conditions": "administered with Coca-Cola (pH = 2.5) compared to water; cited from earlier work"}, "gastric pH [3]": {"system": "gastric pH", "conditions": "cited from earlier work"}, "[4]": {"conditions": "cited from earlier work"}, "P-gp": {"system": "P-gp", "conditions": "cited from earlier work"}, "[5]": {"conditions": "cited from earlier work", "remark": "listed apart in the source"}, "[6]": {"conditions": "addition of 100 mg ritonavir to 300 mg atazanavir; cited from earlier work"}, "[7]": {"conditions": "human, in vivo"}, "[8]": {"conditions": "fed state, rabeprazole pretreated"}}, "note": "Where a name gives a salt, the structure may show the parent alone. Read-outs that look alike come from different tables or passages of the source.", "data": [{"compound": "COCCCOc1ccnc(C[S+]([O-])c2nc3ccccc3[nH]2)c1C", "note": "(stereo not shown) [rabeprazole]", "values": [{"measurement": "Gastric pH around the time of atazanavir administration", "setting": "gastric pH [1]; pretreatment with rabeprazole, after light meal", "value": "~3"}]}, {"compound": "CC[C@@H]([C@H](C)O)n1ncn(-c2ccc(N3CCN(c4ccc(OC[C@@H]5CO[C@@](Cn6cncn6)(c6ccc(F)cc6F)C5)cc4)CC3)cc2)c1=O", "note": "[posaconazole]", "values": [{"measurement": "Increase in systemic exposure", "setting": "[2]", "value": "> 70", "unit": "%"}]}, {"compound": "C[N+](C)(C)CC(=O)O", "note": "[BHCl, betaine hydrochloride]", "values": [{"measurement": "Average onset of effect (time to achieve a pH < 3)", "setting": "gastric pH [3]; pilot study, rabeprazole-pretreated healthy volunteers", "value": "~5", "unit": "minutes"}, {"measurement": "Lowest observed gastric pH", "setting": "gastric pH [1]; 1500 mg BHCl after rabeprazole pretreatment, fed state, mean ± SD", "value": "0.838 ±0.391"}, {"measurement": "Length of the reacidification period (time for gastric pH to rebound to pH >4)", "setting": "gastric pH [1]; [8]", "value": "76 ±20", "unit": "minutes"}, {"measurement": "Time to achieve lowest gastric pH after BHCl administration", "setting": "gastric pH [1]; [8]", "value": "67 ±33", "unit": "minutes"}]}, {"compound": "COC(=O)N[C@H](C(=O)N[C@@H](Cc1ccccc1)[C@@H](O)CN(Cc1ccc(-c2ccccn2)cc1)NC(=O)[C@@H](NC(=O)OC)C(C)(C)C)C(C)(C)C", "note": "[Atazanavir]", "values": [{"measurement": "Reductions in boosted atazanavir exposures", "setting": "[4]; omeprazole 20 mg once daily", "value": "39-46%"}, {"measurement": "Exposure reductions", "setting": "[4]; ritonavir-boosted atazanavir with omeprazole 40 mg once daily, light meal", "value": "72-76%"}, {"measurement": "Inhibitory effect of a known P-gp inhibitor on atazanavir efflux", "setting": "P-gp; pH 5.5", "value": 78, "unit": "%"}, {"measurement": "Inhibitory effect of a known P-gp inhibitor on atazanavir efflux", "setting": "P-gp; pH 7.4", "value": 245, "unit": "%"}, {"measurement": "Solubility", "setting": "[5]; pH 2", "value": 5200, "unit": "µg/mL"}, {"measurement": "Solubility", "setting": "[5]; pH 4", "value": "< 5", "unit": "µg/mL"}, {"measurement": "Increase in atazanavir AUC", "setting": "[6]", "value": 238, "unit": "%"}, {"measurement": "Increase in atazanavir Cmax", "setting": "[6]", "value": 86, "unit": "%"}, {"measurement": "AUClast lost due to rabeprazole that was restored by addition of BHCl", "setting": "[7]", "value": 12, "unit": "%"}, {"measurement": "Differences in Tmax across treatments", "setting": "[7]", "value": "No significant differences"}, {"measurement": "Individual decrease in AUClast and Cmax after rabeprazole pretreatment", "setting": "[7]", "value": "11-48%"}, {"measurement": "Mean exposure lost due to rabeprazole that was restored by addition of BHCl", "setting": "[7]", "value": "12-13%"}, {"measurement": "Mean plasma concentration in Treatment C compared with Treatment B", "setting": "[7]; 1.5 h", "value": 3.4, "unit": "times"}]}, {"compound": "CC(C)c1nc(CN(C)C(=O)N[C@H](C(=O)N[C@@H](Cc2ccccc2)C[C@H](O)[C@H](Cc2ccccc2)NC(=O)OCc2cncs2)C(C)C)cs1", "note": "[Ritonavir]", "values": [{"measurement": "AUClast lost due to rabeprazole that was restored by addition of BHCl", "setting": "[7]", "value": 13, "unit": "%"}, {"measurement": "Cmax lost due to rabeprazole that was restored by addition of BHCl", "setting": "[7]", "value": 12, "unit": "%"}]}, {"compound": "COc1ccc2[nH]c([S+]([O-])Cc3ncc(C)c(OC)c3C)nc2c1", "note": "(stereo not shown) [omeprazole]", "values": [{"measurement": "Gastric pH around the time of atazanavir administration", "setting": "gastric pH [3]; pretreatment with high-dose omeprazole", "value": "~6"}]}]}
